Entries after “also recorded” stand apart in the source; their conditions may differ.
Columns and labels:
Palmer Amaranth = assay: Field trial, post-emergence weed control, Palmer Amaranth; type: in vivo; conditions: compared with the other adjuvant; in words
Procedure: (§1) A field trial was conducted in Mississippi, United States, to evaluate the impact of the C16 to C18 fatty acid methyl esters adjuvant system on the effectiveness of several herbicides. Rice, soybeans, cotton, peanut and corn seeds were planted and irrigated on two days after planting. Seven days after planting there was good stand of all of the crops, except only 4 of the 9 rows of rice were visible. The weeds were about 3 centimeters tall at this time. The treatments in Table 2 below were applied 13 days after planting. The rate of each treatment is below in Table 2 and all of the adjuvant systems were mixed with the herbicides at a rate of 1% v/v.
(§2) At the time of treatment: Hemp Sesbania was at the V4 growth stage and from about 3 to 5 about inches tall; Ivyleaf Morningglory was at the V3 growth stage and from about 2 to about 4 inches tall; Common Barnyardgrass was at the V5 growth stage and from about 2.5 to about 6 inches tall; Palmer Amaranth was at the vegetative growth stage and from about 2 to about 7 inches tall; Yellow Nutsedge was at the V8 growth stage and from about 3 to about 6 inches tall; and Broadleaf Signalgrass was at the second true leaf growth stage and from about 2 to about 4 inches tall.
(§3) The weeds were evaluated fourteen days after treatment. […]

Broadleaf Signalgrass = assay: Field trial, post-emergence weed control, Broadleaf Signalgrass; type: in vivo, Brachiaria platyhylla; conditions: compared with the other adjuvant; in words
Procedure: as §1, §2, §3

Hemp Sesbania = assay: Field trial, post-emergence weed control, Hemp Sesbania; type: in vivo; conditions: compared with the other adjuvant; in words
Procedure: as §1, §2, §3

peanut = assay: Field trial, crop phytotoxicity, peanut; type: in vivo; conditions: compared with the other adjuvant; in words
Procedure: as §1
(§4) At the time of treatment: rice was at the first true leaf growth stage and from about 5 to 7 inches tall; soybeans were at the V2 growth stage and from about 5 to 7 inches tall; cotton was at the V2 growth stage and from about 5 to 7 inches tall; peanut was at the V5 growth stage and from about 3 to 5 inches tall; and corn was at the V3 growth stage and from about 9 to 12 inches tall.
(§5) The adjuvant system described in Example 1 above was used as the source of the C16 to C18 fatty acid methyl esters adjuvant system used in this study.
(§6) In this study, phytotoxicity of the crops was also evaluated.

soybeans = assay: Field trial, crop phytotoxicity, soybeans; type: in vivo; conditions: compared with the other adjuvant; in words
Procedure: as §1, §4, §5, §6

corn = assay: Field trial, crop phytotoxicity, corn; type: in vivo; conditions: compared with the other adjuvant; in words
Procedure: as §1, §4, §5, §6

Ivyleaf Morningglory = assay: Field trial, post-emergence weed control, Ivyleaf Morningglory; type: in vivo; conditions: compared with the other adjuvant; in words
Procedure: as §1, §2, §3

weeds = assay: Field trial, impact of the adjuvant system on herbicide effectiveness, weeds overall; type: in vivo; conditions: compared with the other adjuvant; no weed named; in words
Procedure: as §1, §2
The weeds were evaluated fourteen days after treatment.
as §5

rice = assay: Field trial, crop phytotoxicity, rice; type: in vivo; conditions: compared with the other adjuvant; in words
Procedure: as §1, §4, §5, §6

Yellow Nutsedge = assay: Field trial, post-emergence weed control, Yellow Nutsedge; type: in vivo, Cyperus esculentus; conditions: compared with the other adjuvant; in words
Procedure: as §1, §2, §3

Common Barnyardgrass = assay: Field trial, post-emergence weed control, Common Barnyardgrass; type: in vivo, Echinochloa crus-galli; conditions: compared with the other adjuvant; in words
Procedure: as §1, §2, §3

cotton = assay: Field trial, crop phytotoxicity, cotton; type: in vivo; conditions: compared with the other adjuvant; in words
Procedure: as §1, §4, §5, §6

SMILES	Effect of C16 to C18 fatty acid methyl esters adjuvant system on effectiveness on Palmer Amaranth (Palmer Amaranth)	Effect of C16 to C18 fatty acid methyl esters adjuvant system on effectiveness on Broadleaf Signalgrass (Broadleaf Signalgrass)	Effect of C16 to C18 fatty acid methyl esters adjuvant system on effectiveness on Hemp Sesbania (Hemp Sesbania)	Effect of C16 to C18 fatty acid methyl esters adjuvant system on phytotoxicity on peanut (peanut)	Effect of C16 to C18 fatty acid methyl esters adjuvant system on phytotoxicity on soybeans (soybeans)	Effect of C16 to C18 fatty acid methyl esters adjuvant system on phytotoxicity on corn (corn)	Effect of C16 to C18 fatty acid methyl esters adjuvant system on effectiveness on Ivyleaf Morningglory (Ivyleaf Morningglory)	Effect of C16 to C18 fatty acid methyl esters adjuvant system on effectiveness/efficacy of the herbicide (weeds overall) (weeds)	Effect of C16 to C18 fatty acid methyl esters adjuvant system on phytotoxicity on rice (rice)	Effect of C16 to C18 fatty acid methyl esters adjuvant system on effectiveness on Yellow Nutsedge (Yellow Nutsedge)	Effect of C16 to C18 fatty acid methyl esters adjuvant system on effectiveness on Common Barnyardgrass (Common Barnyardgrass)	Effect of C16 to C18 fatty acid methyl esters adjuvant system on phytotoxicity on cotton (cotton)
CCOC(=O)COc1ncccc1Oc1cc(-n2c(=O)cc(C(F)(F)F)n(C)c2=O)c(F)cc1Cl [ethyl [3-[2-chloro-4-fluoro-5-(1-methyl-6-trifluoromethyl-2,4-dioxo-1,2,3,4-tetrahydropyrimidin-3-yl)phenoxy]-2-pyridyloxy]acetate]	did not increase the effectiveness	increases the effectiveness	did not increase the effectiveness	increase the phytotoxicity	did not significantly increase phytotoxicity	did not significantly increase phytotoxicity	did not increase the effectiveness	improved the efficacy	increase the phytotoxicity	did not increase the effectiveness	increases the effectiveness	did not significantly increase phytotoxicity
C#CCN1C(=O)COc2cc(F)c(N3C(=O)C4=C(CCCC4)C3=O)cc21 [flumioxazin]								did not improve the efficacy; also recorded: failed to increase the effectiveness				
CCOC(=O)C(C)OC(=O)c1cc(Oc2ccc(C(F)(F)F)cc2Cl)ccc1[N+](=O)[O-] (centres unmarked) [lactofen]								did not improve the efficacy; also recorded: failed to increase the effectiveness				
